Assay results taken from publication PMC11769294, “(E)-1-(3-(3-Hydroxy-4-Methoxyphenyl)-1-(3,4,5-Trimethoxyphenyl)allyl)-1H-1,2,4-Triazole and Related Compounds: Their Synthesis and Biological Evaluation as Novel Antimitotic Agents Targeting Breast Cancer” (Pharmaceuticals, 2025).

Columns and labels:
Format in all cases: cell-based, human
KM12 (Colon Cancer) = test: NCI60 screen (SRB); settings: one dose 10 µM, 48 h
HCT-15 (Colon Cancer) = test: NCI60 screen (SRB); settings: one dose 10 µM, 48 h
T-47D (Breast Cancer) = test: NCI60 screen (SRB); settings: one dose 10 µM, 48 h
[1] = test system: MDA-MB-468 (Breast Cancer); test: NCI60 screen (SRB); settings: one dose 10 µM, 48 h
[2] = test system: NCI-H522 (Non-Small Cell Lung Cancer); test: NCI60 screen (SRB); settings: one dose 10 µM, 48 h
SF-268 (CNS Cancer) = test: NCI60 screen (SRB); settings: one dose 10 µM, 48 h
MALME-3M (Melanoma) = test: NCI60 screen (SRB); settings: one dose 10 µM, 48 h
COLO 205 (Colon Cancer) = test: NCI60 screen (SRB); settings: one dose 10 µM, 48 h
786-0 (Renal Cancer) = test: NCI60 screen (SRB); settings: one dose 10 µM, 48 h
A498 (Renal Cancer) = test: NCI60 screen (SRB); settings: one dose 10 µM, 48 h
[3] = test system: EKVX (Non-Small Cell Lung Cancer); test: NCI60 screen (SRB); settings: one dose 10 µM, 48 h
OVCAR-3 (Ovarian Cancer) = test: NCI60 screen (SRB); settings: one dose 10 µM, 48 h
U251 (CNS Cancer) = test: NCI60 screen (SRB); settings: one dose 10 µM, 48 h
M14 (Melanoma) = test: NCI60 screen (SRB); settings: one dose 10 µM, 48 h
[4] = test system: HOP-62 (Non-Small Cell Lung Cancer); test: NCI60 screen (SRB); settings: one dose 10 µM, 48 h
UO-31 (Renal Cancer) = test: NCI60 screen (SRB); settings: one dose 10 µM, 48 h
SNB-19 (CNS Cancer) = test: NCI60 screen (SRB); settings: one dose 10 µM, 48 h
OVCAR-4 (Ovarian Cancer) = test: NCI60 screen (SRB); settings: one dose 10 µM, 48 h
[5] = test system: NCI 60 cancer cell line panel; test: NCI60 screen (SRB), all cell lines; settings: over the 60-cell line panel; one dose 10 µM; 48 h
ACHN (Renal Cancer) = test: NCI60 screen (SRB); settings: one dose 10 µM, 48 h
SR (Leukemia) = test: NCI60 screen (SRB); settings: one dose 10 µM, 48 h
OVCAR-8 (Ovarian Cancer) = test: NCI60 screen (SRB); settings: one dose 10 µM, 48 h
SF-295 (CNS Cancer) = test: NCI60 screen (SRB); settings: one dose 10 µM, 48 h
OVCAR-5 (Ovarian Cancer) = test: NCI60 screen (SRB); settings: one dose 10 µM, 48 h
RXF 393 (Renal Cancer) = test: NCI60 screen (SRB); settings: one dose 10 µM, 48 h
[6] = test system: HOP-92 (Non-Small Cell Lung Cancer); test: NCI60 screen (SRB); settings: one dose 10 µM, 48 h
SF-539 (CNS Cancer) = test: NCI60 screen (SRB); settings: one dose 10 µM, 48 h
[7] = test system: NCI-H460 (Non-Small Cell Lung Cancer); test: NCI60 screen (SRB); settings: one dose 10 µM, 48 h
MOLT-4 (Leukemia) = test: NCI60 screen (SRB); settings: one dose 10 µM, 48 h
SNB-75 (CNS Cancer) = test: NCI60 screen (SRB); settings: one dose 10 µM, 48 h
PC-3 (Prostate Cancer) = test: NCI60 screen (SRB); settings: one dose 10 µM, 48 h
HT29 (Colon Cancer) = test: NCI60 screen (SRB); settings: one dose 10 µM, 48 h
[8] = test system: NCI/ADR-RES (Ovarian Cancer); test: NCI60 screen (SRB); settings: one dose 10 µM, 48 h
IGROV1 (Ovarian Cancer) = test: NCI60 screen (SRB); settings: one dose 10 µM, 48 h
SK-MEL-28 (Melanoma) = test: NCI60 screen (SRB); settings: one dose 10 µM, 48 h
LOX IMVI (Melanoma) = test: NCI60 screen (SRB); settings: one dose 10 µM, 48 h
BT-549 (Breast Cancer) = test: NCI60 screen (SRB); settings: one dose 10 µM, 48 h
SK-OV-3 (Ovarian Cancer) = test: NCI60 screen (SRB); settings: one dose 10 µM, 48 h
HL-60 (TB) (Leukemia) = test: NCI60 screen (SRB); settings: HL-60 (TB); one dose 10 µM; 48 h
HCC-2998 (Colon Cancer) = test: NCI60 screen (SRB); settings: one dose 10 µM, 48 h
CAKI-1 (Renal Cancer) = test: NCI60 screen (SRB); settings: one dose 10 µM, 48 h

`COc1cc(/C=C/C(/C=C/c2cc(OC)c(OC)c(OC)c2)n2ccnc2)cc(OC)c1OC` [Compound 30, 1-((1E,4E)-1,5-bis(3,4,5-trimethoxyphenyl)penta-1,4-dien-3-yl)-1H-imidazole] gave a growth percent (KM12 (Colon Cancer)) of 82.35%, a growth percent (HCT-15 (Colon Cancer)) of 77.23% and a growth percent (T-47D (Breast Cancer)) of 77.54%. For the same compound, the growth percent [1] was 57.22%, the growth percent [2] was 64.75% and the growth percent (SF-268 (CNS Cancer)) was 91.93%. For the same compound, the growth percent (MALME-3M (Melanoma)) was 93.80%, the growth percent (COLO 205 (Colon Cancer)) was 99.42% and the growth percent (786-0 (Renal Cancer)) was 95.20%. It also gave a growth percent (A498 (Renal Cancer)) of 104.55%, a growth percent [3] of 94.43% and a growth percent (OVCAR-3 (Ovarian Cancer)) of 83.41%. The growth percent (U251 (CNS Cancer)) was 81.64%, the growth percent (M14 (Melanoma)) was 82.03% and the growth percent [4] was 84.91%. The growth percent (UO-31 (Renal Cancer)) was 66.56%, the growth percent (SNB-19 (CNS Cancer)) was 89.08% and the growth percent (OVCAR-4 (Ovarian Cancer)) was 92.69%. For the same compound, the mean growth percent [5] was 81.3%, the growth percent (ACHN (Renal Cancer)) was 99.92% and the growth percent (SR (Leukemia)) was 31.50%. It also gave a growth percent (OVCAR-8 (Ovarian Cancer)) of 83.74%, a growth percent (SF-295 (CNS Cancer)) of 95.73% and a growth percent (OVCAR-5 (Ovarian Cancer)) of 129.83%. The growth percent (RXF 393 (Renal Cancer)) was 88.15%, the growth percent [6] was 56.24% and the growth percent (SF-539 (CNS Cancer)) was 93.55%. It also gave a growth percent [7] of 93.96%, a growth percent (MOLT-4 (Leukemia)) of 74.07% and a growth percent (SNB-75 (CNS Cancer)) of 54.99%. It also gave a growth percent (PC-3 (Prostate Cancer)) of 58.09%, a growth percent (HT29 (Colon Cancer)) of 80.30% and a growth percent [8] of 89.35%. It also gave a growth percent (IGROV1 (Ovarian Cancer)) of 78.02%, a growth percent (SK-MEL-28 (Melanoma)) of 100.52% and a growth percent (LOX IMVI (Melanoma)) of 85.14%. The growth percent (BT-549 (Breast Cancer)) was 83.42%, the growth percent (SK-OV-3 (Ovarian Cancer)) was 92.06% and the growth percent (HL-60 (TB) (Leukemia)) was 70.60%. For the same compound, the growth percent (HCC-2998 (Colon Cancer)) was 99.87%.
`COc1ccc(/C=C/C(c2cc(OC)c(OC)c(OC)c2)n2ccnc2)cc1O` (stereo not drawn) [Compound 23b, (E)-5-(3-(1H-Imidazol-1-yl)-3-(3,4,5-trimethoxyphenyl)prop-1-en-1-yl)-2-methoxyphenol] was tested, and the growth percent (KM12 (Colon Cancer)) was 29.04%, the growth percent (HCT-15 (Colon Cancer)) was 24.91% and the growth percent (T-47D (Breast Cancer)) was 40.62%. The growth percent [1] was 40.60%, the growth percent (CAKI-1 (Renal Cancer)) was 60.21% and the growth percent [2] was 24.65%. It also gave a growth percent (SF-268 (CNS Cancer)) of 56.10%, a growth percent (MALME-3M (Melanoma)) of 57.72% and a growth percent (COLO 205 (Colon Cancer)) of 89.81%. The growth percent (786-0 (Renal Cancer)) was 34.04%, the growth percent (A498 (Renal Cancer)) was 67.46% and the growth percent [3] was 81.22%. The growth percent (OVCAR-3 (Ovarian Cancer)) was 4.86%, the growth percent (U251 (CNS Cancer)) was 27.12% and the growth percent (M14 (Melanoma)) was 18.61%. It also gave a growth percent [4] of 47.25%, a growth percent (UO-31 (Renal Cancer)) of 59.92% and a growth percent (SNB-19 (CNS Cancer)) of 47.27%. For the same compound, the growth percent (OVCAR-4 (Ovarian Cancer)) was 78.81%, the mean growth percent [5] was 39.7% and the growth percent (ACHN (Renal Cancer)) was 46.34%. The growth percent (SR (Leukemia)) was 6.18%, the growth percent (OVCAR-8 (Ovarian Cancer)) was 40.97% and the growth percent (SF-295 (CNS Cancer)) was 16.59%. It also gave a growth percent (OVCAR-5 (Ovarian Cancer)) of 102.8%, a growth percent (RXF 393 (Renal Cancer)) of 33.07% and a growth percent [6] of 30.49%. For the same compound, the growth percent (SF-539 (CNS Cancer)) was 23.09%, the growth percent [7] was 16.55% and the growth percent (MOLT-4 (Leukemia)) was 31.88%. The growth percent (SNB-75 (CNS Cancer)) was 20.04%, the growth percent (PC-3 (Prostate Cancer)) was 25.28% and the growth percent (HT29 (Colon Cancer)) was 70.97%. The growth percent [8] was 45.70%, the growth percent (IGROV1 (Ovarian Cancer)) was 55.74% and the growth percent (SK-MEL-28 (Melanoma)) was 58.86%. For the same compound, the growth percent (LOX IMVI (Melanoma)) was 46.09%, the growth percent (BT-549 (Breast Cancer)) was 44.34% and the growth percent (SK-OV-3 (Ovarian Cancer)) was 33.54%. It also gave a growth percent (HL-60 (TB) (Leukemia)) of −36.59% and a growth percent (HCC-2998 (Colon Cancer)) of 76.97%.
